The source of these data is patent publication US20240308995A1, “O-GLYCOPROTEIN-2-ACETAMIDO-2-DEOXY-3-D-GLUCOPYRANOSIDASE INHIBITORS” (BIOGEN MA INC., priority 2018, published 2024).

pIC50: −log10 of the molar value. Read-outs that look alike come from different tables or passages of the source. A value given as a limit tells only on which side of the number the result lay.

In general, pIC50 refers to the IC50 on a negative log10 scale, so that one unit is a factor of ten.

A short description of data set [1]: Rat Liver Microsome Stability Assay. In kind it is in vitro ADME. The following applies: rat liver microsomes, 1 uM compound. On the technique in general: Microsomes from liver hold many membrane-bound enzymes, among them those of drug oxidation.
The target in data set [2] is OGA (S400 O-GLCNAC), HEK-293T cells transfected with Tau-V5 (Homo sapiens (Human), UniProt O60502). Briefly: Cellular OGA-Tau MSD Assay. In kind it is cell-based. The procedure:
HEK-293T cells were transfected with […] and Tau-V5 plasmids using Lipofectamine and grown overnight. Next day, the cells were collected and re-plated at 1×10^5 cells per well in 96 well plates. Cells were incubated for 4 hr at 37° C., before compounds were added at 1 uM, with 3-fold dilutions in a 10-point titration. Cell plates were incubated with compounds overnight at 37° C. The next day media was removed from wells by gentle aspiration and 120 ul of 1× Cell Lysis buffer mixed with protease and phosphatase cocktail added to each well. A freeze thaw was performed at -80° C., then mixed before transferring 50 ul to MSD plates coated with V5-tag antibody to capture Tau. MSD Plates were incubated overnight at 4° C., on a plate shaker. The following day, plates were washed and incubated with Tau-[…]-GlcNAc antibody for 2 hr and then developed with rabbit Sulfo-tag antibody. Final read out was carried out on an MSD 600 reader. The data was analyzed using Graph Pad or Genedata, the data was normalized and % activity versus log of compound concentration was plotted. The IC50 values were obtained from a 4 parameter fit.

In data set [3] the target is Recombinant full length human OGA enzyme (Homo sapiens (Human), UniProt O60502). The data set can be described thus: OGA Enzyme Inhibition Biochemical Assay. The following applies: 1 nM OGA, 100 μM 4-MUGlcNAc, pH 6.4. The procedure: Recombinant full length human OGA enzyme was purchased from Origene. 4-MUGlcNAc substrate was purchased from Sigma. All other reagents were purchased from Sigma or Fisher. Assay buffer consists of the McIlvaine buffer system, pH 6.4 (0.2M Na2HPO4 mixed with 0.1M citric acid) and 0.01% BSA. […] Reactions were incubated for 90 minutes at room temperature and quenched with 40 μl of 3M glycine, pH 10 and read on a Perkin Elmer Envision plate reader (Ex: 355 nm/Em: 460 nm). Compounds were tested with a 10-point dose-response starting from 20 μM with a 4-fold dilution. Data was fit using GraphPad Prism using a 4-parameter fit with variable slope.
Sequence of Recombinant full length human OGA enzyme (O60502 whole entry): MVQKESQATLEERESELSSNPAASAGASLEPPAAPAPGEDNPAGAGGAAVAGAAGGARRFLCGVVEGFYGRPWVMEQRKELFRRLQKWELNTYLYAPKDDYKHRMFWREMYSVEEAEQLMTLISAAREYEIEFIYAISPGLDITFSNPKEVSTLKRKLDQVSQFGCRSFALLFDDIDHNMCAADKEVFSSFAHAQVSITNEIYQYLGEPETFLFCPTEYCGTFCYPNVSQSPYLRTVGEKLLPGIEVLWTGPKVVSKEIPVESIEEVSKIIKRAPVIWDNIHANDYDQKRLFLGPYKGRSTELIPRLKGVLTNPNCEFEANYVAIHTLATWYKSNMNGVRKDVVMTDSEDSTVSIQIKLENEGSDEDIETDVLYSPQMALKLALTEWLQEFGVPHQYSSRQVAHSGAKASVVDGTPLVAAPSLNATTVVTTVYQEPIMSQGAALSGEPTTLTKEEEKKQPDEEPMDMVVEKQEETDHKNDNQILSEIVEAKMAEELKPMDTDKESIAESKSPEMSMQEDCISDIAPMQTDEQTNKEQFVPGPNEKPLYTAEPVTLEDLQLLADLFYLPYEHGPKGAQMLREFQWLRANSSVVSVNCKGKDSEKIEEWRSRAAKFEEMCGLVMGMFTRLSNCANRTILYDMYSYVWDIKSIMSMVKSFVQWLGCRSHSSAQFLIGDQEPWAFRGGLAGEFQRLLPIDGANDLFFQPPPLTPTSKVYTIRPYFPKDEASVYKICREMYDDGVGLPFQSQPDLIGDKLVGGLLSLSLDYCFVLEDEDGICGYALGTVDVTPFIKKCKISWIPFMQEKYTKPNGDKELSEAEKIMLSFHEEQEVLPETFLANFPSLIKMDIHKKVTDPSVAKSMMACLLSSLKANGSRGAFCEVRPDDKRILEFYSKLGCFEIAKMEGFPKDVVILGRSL

Data set [4] relates to P-gp (MDR1). Briefly: MDR1-MDCK Efflux Ratio Assay. In kind it is in vitro ADME. The following applies: dog, read-out: MDR1-MDCK Efflux Ratio (B-A/A-B). The procedure:
MDR1-MDCK cell monolayers were grown to confluence on microporous polyester membranes in 96-well Corning insert plates. The permeability assay buffer was Hanks' Balanced Salt Solution containing 10 mM HEPES at pH of 7.4. Loperamide (1 μM) was used as a positive control P-gp substrate. Propranolol and Bestatin (1 μM) were used as high and low permeability comparators, respectively. Test compounds or positive control P-gp substrate/permeability comprators were added to respective apical and basolateral chambers for bidirectional assessment of permeability. Receiver buffer (transport buffer supplemented with 1% bovine serum albumin) was added to respective receiver chambers. MDR1-MDCK cells were incubated with test compounds at 37° C. with 5% CO2 for 2 hr. Samples were collected from the donor chamber at both 0 and 120 minutes, and from the receiver chamber at 120 minutes. Test and control compound concentrations were determined using LC-MS/MS analysis. Each determination was performed in triplicate. The apparent permeability (Papp), efflux ratio and mass balance (percent recovery) were calculated as follows: [formula] where: dCr/dt is the cumulative concentration in the receiver compartment versus time in μM s^−1 Vr is the volume of the receiver compartment in cm^3 Vd is the volume of the donor compartment in cm^3 A is the area of the insert (0.143 cm^2 for 96-well insert) CE is the estimated experimental concentration (Time=0) of the dosing solution Cr^final is the concentration of the receiver at the end of the incubation period Cd^final is the concentration of the donor at the end of the incubation period.

The mark [5] stands for this setting: HEK-293T cells, Tau-S400-GlcNAc MSD readout.
Setting [6] is: MDCK-MDR1, pH 7.4, MDR1-MDCK cells, 2 hr, pH 7.4.
Where [7] appears, read: MDCK-MDR1, pH 7.4, repeated assay, value marked with asterisk (*).

Sequence of OGA (S400 O-GLCNAC), HEK-293T cells transfected with Tau-V5 (O60502 whole entry): as above

Regarding `[2H]C([2H])([2H])Oc1cc(O[C@@H]2C[C@H](C)N(Cc3cnc(NC(C)=O)s3)C2)ncn1` (single isomer, unassigned) [Example 1-154], the “RLM % Qh (%)” value in data set [1] came to 27%. The pIC50 in data set [2] (setting [5]) was 8.70; in data set [3] it was greater than 9.00. The efflux ratio at 2 h in data set [4] (setting [6]) worked out at 4.3.

In the case of `[2H]C([2H])([2H])C(=O)Nc1ncc(CN2C[C@H](Oc3cc(OC)ncn3)C[C@@H]2C)s1` (single isomer, unassigned) [Example 1-156], the “RLM % Qh (%)” value in data set [1] came out at 35%. Further, the pIC50 in data set [2] (setting [5]) was 8.70; in data set [3], greater than 9.00. Moreover, in data set [4] (setting [6]), the efflux ratio at 2 h worked out at 5.2.

In the case of `[2H]C(c1cnc(NC(C)=O)s1)N1C[C@H](Oc2cc(OC)ncn2)C[C@@H]1C` (single isomer, unassigned) [Example 1-158], the “RLM % Qh (%)” value in data set [1] is given as 29%. For the same molecule, the pIC50 in data set [2] (setting [5]) is 8.52; in data set [3], greater than 9.00. In addition, in data set [4] (setting [6]), the efflux ratio at 2 h is 5.2.

In the case of `[2H]C([2H])(c1cnc(NC(C)=O)s1)N1C[C@H](Oc2cc(OC)ncn2)C[C@@H]1C` (single isomer, unassigned) [Example 1-160], the “RLM % Qh (%)” value in data set [1] turned out to be 29%. Moreover, the pIC50 was 8.52 in data set [2] (setting [5]) and greater than 9.00 in data set [3]. Besides, the efflux ratio at 2 h in data set [4] (setting [6]) turned out to be 4.6.

Regarding `[2H]c1nc(NC(C)=O)sc1CN1C[C@H](Oc2cc(OC)ncn2)C[C@@H]1C` (single isomer, unassigned) [Example 1-162], the “RLM % Qh (%)” value in data set [1] came to 35%. For the same molecule, the results for the pIC50 in data set [2] (setting [5]) and in data set [3] were 7.72 and greater than 9.00, respectively. Moreover, in data set [4] (setting [6]), the efflux ratio at 2 h came to 6.2.

On to `[2H][C@@]1(Oc2cc(OC)ncn2)C[C@H](C)N(Cc2cnc(NC(C)=O)s2)C1` (single isomer, unassigned) [Example 1-163], for which the “RLM % Qh (%)” value in data set [1] turned out to be 30%. For the same molecule, the pIC50 in data set [2] (setting [5]) was 8.40; in data set [3], greater than 9.00. Further, in data set [4] (setting [6]), the efflux ratio at 2 h came out at 5.9.

Turning to `CC(=O)Nc1nc(F)c(CN2C[C@H](Oc3cc(C)nc(C)c3)C[C@H]2C)s1` (stereo in doubt) [Example 1-51, N-(5-(((2R,4R)-4-((2,6-dimethylpyridin-4-yl)oxy)-2-methylpyrrololidin-1-yl)methyl)-4-fluorothiazol-2-yl)acetamide], the “RLM % Qh (%)” value in data set [1] is given as 51%. The pIC50 in data set [2] (setting [5]) was 7.62; in data set [3], 8.70. Moreover, in data set [4] (setting [6]), the efflux ratio at 2 h amounted to 23.3.

Take `CC(=O)Nc1ncc(CN2C[C@@H](Oc3ccc(C)nc3)C[C@H]2C)s1` (stereo in doubt) [Example 1-116, N-(5-(((2R,4S)-2-methyl-4-((6-methylpyridin-3-yl)oxy)pyrrolidin-1-yl)methyl)thiazol-2-yl)acetamide]: the “RLM % Qh (%)” value in data set [1] came out at 55%. Moreover, the pIC50 in data set [2] (setting [5]) is 9.00; in data set [3], greater than 9.00. The efflux ratio at 2 h in data set [4] (setting [6]) amounted to 19.6.

As to `COc1cc(O[C@@H]2C[C@H](C)N(Cc3cnc(NC(C)=O)s3)C2)ncn1` [Example 1-1, N-(5-(((2S,4R)-4-((6-methoxypyrimidin-4-yl)oxy)-2-methylpyrrolidin-1-yl)methyl)thiazol-2-yl)acetamide], the “RLM % Qh (%)” value in data set [1] amounted to 31%. Further, the negative-log IC50 (pIC50) in data set [2] (setting [5]) was 8.70; in data set [3], greater than 9.00. The efflux ratio at 2 h in data set [4] (setting [6]) was 4.8.

`CC(=O)Nc1ncc(CN2CCC[C@H](Oc3ccc(F)cn3)C2)s1` [Example 1-2, (S)—N-(5-((3-((5-fluoropyridin-2-yl)oxy)piperidin-1-yl)methyl)thiazol-2-yl)acetamide]: the “RLM % Qh (%)” value in data set [1] came out at 86%. In addition, the results for the pIC50 in data set [2] (setting [5]) and in data set [3] were 7.46 and 6.68, respectively. The figures for the efflux ratio at 2 h in data set [4] (setting [6]) and in data set [4] (setting [7]) were 2.3 and 2.1, respectively.

`CC(=O)Nc1ncc(CN2CCC[C@@H](Oc3ccc(F)cn3)C2)s1` [Example 1-3, (R)—N-(5-((3-((5-fluoropyridin-2-yl)oxy)piperidin-1-yl)methyl)thiazol-2-yl)acetamide]: the “RLM % Qh (%)” value in data set [1] was determined as 82%. For the same molecule, the values for the pIC50 in data set [2] (setting [5]) and in data set [3] were 7.42 and 6.85, respectively. Besides, the results for the efflux ratio at 2 h in data set [4] (setting [6]) and in data set [4] (setting [7]) were 2.3 and 2.2, respectively.

In the case of `CC(=O)Nc1ncc(CN2CC[C@@H](Oc3ccc(F)cn3)C2)s1` [Example 1-6, (R)—N-(5-((3-((5-fluoropyridin-2-yl)oxy)pyrrolidin-1-yl)methyl)thiazol-2-yl)acetamide], in data set [1], the “RLM % Qh (%)” value was 40%. Also, the results for the pIC50 in data set [2] (setting [5]) and in data set [3] were 7.43 and 7.10, respectively. Besides, the efflux ratio at 2 h in data set [4] (setting [6]) is 1.7.

Turning to `CC(=O)Nc1ncc(CN2C[C@@H](Oc3ccc(F)cn3)C[C@H]2C)s1` [Example 1-8, N-(5-(((2R,4S)-4-((5-fluoropyridin-2-yl)oxy)-2-methylpyrrolidin-1-yl)methyl)thiazol-2-yl)acetamide], in data set [1], the “RLM % Qh (%)” value is recorded as 76%. Also, the pIC50 in data set [2] (setting [5]) was less than 6.00; in data set [3], 6.34. The efflux ratio at 2 h in data set [4] (setting [6]) came to 2.3.

Consider `CC(=O)Nc1ncc(CN2C[C@H](Oc3cc(Cl)ncn3)C[C@@H]2C)s1` [Example 1-21, N-(5-(((2S,4R)-4-((6-chloropyrimidin-4-yl)oxy)-2-methylpyrrolidin-1-yl)methyl)thiazol-2-yl)acetamide], for which the pIC50 in data set [2] (setting [5]) was 8.15; in data set [2] (repeated assay, value marked with asterisk (*)), 8.10; in data set [3] it was greater than 9.00. Besides, the efflux ratio at 2 h in data set [4] (setting [6]) worked out at 3.8.

`CC(=O)Nc1nc(F)c(CN2C[C@@H](Oc3cc(C)nc(C)c3)CC[C@@H]2C)s1` [Example 1-56, N-(5-(((2S,5S)-5-((2,6-dimethylpyridin-4-yl)oxy)-2-methylpiperidin-1-yl)methyl)-4-fluorothiazol-2-yl)acetamide]: in data set [1], the “RLM % Qh (%)” value amounted to 91%. The pIC50 in data set [3] is greater than 9.00. In data set [4] (setting [6]), the efflux ratio at 2 h was found to be 21.8.

For `CC(=O)Nc1ncc(CN2C[C@H](Oc3cc(OCC(F)(F)F)ncn3)C[C@@H]2C)s1` [Example 1-77], the “RLM % Qh (%)” value in data set [1] came out at 58%. Also, the pIC50 was 8.00 in data set [2] (setting [5]) and greater than 9.00 in data set [3].

With `CC(=O)Nc1ncc(CN2C[C@H](Oc3ncc(C)nc3C)C[C@@H]2C)s1` [Example 1-81, N-(5-(((2S,4R)-4-((3,5-dimethylpyrazin-2-yl)oxy)-2-methylpyrrolidin-1-yl)methyl)thiazol-2-yl)acetamide], in data set [1], the “RLM % Qh (%)” value amounted to 74%. The pIC50 in data set [3] was 8.08. Besides, in data set [4] (setting [6]), the efflux ratio at 2 h came out at 7.3.

As for `CC(=O)Nc1nc(F)c(CN2C[C@H](Oc3ncc(C)nc3C)C[C@@H]2C)s1` [Example 1-106, N-(5-(((2S,4R)-4-((3,5-dimethylpyrazin-2-yl)oxy)-2-methylpyrrolidin-1-yl)methyl)-4-fluorothiazol-2-yl)acetamide], the “RLM % Qh (%)” value in data set [1] is recorded as 86%. Moreover, in data set [3], the pIC50 is 8.62. Further, the efflux ratio at 2 h in data set [4] (setting [6]) was found to be 4.6.

With `CC(=O)Nc1nc(F)c(CN2C[C@H](Oc3cc(C)ncc3C)C[C@@H]2C)s1` [Example 1-107, N-(5-(((2S,4R)-4-((2,5-dimethylpyridin-4-yl)oxy)-2-methylpyrrolidin-1-yl)methyl)-4-fluorothiazol-2-yl)acetamide], the “RLM % Qh (%)” value in data set [1] is listed as 58%. Further, in data set [3], the pIC50 is 8.77. For the same molecule, in data set [4] (setting [6]), the efflux ratio at 2 h worked out at 17.2.

For `CC(=O)Nc1ncc(CN2C[C@H](Oc3cc(OC4CN(C)C4)ncn3)C[C@@H]2C)s1` [Example 1-125, N-(5-(((2S,4R)-2-methyl-4-((6-((1-methylazetidin-3-yl)oxy)pyrimidin-4-yl)oxy)pyrrolidin-1-yl)methyl)thiazol-2-yl)acetamide], the “RLM % Qh (%)” value in data set [1] is reported as 54%. Moreover, in data set [3], the pIC50 was 8.85. Besides, in data set [4] (setting [6]), the efflux ratio at 2 h amounted to 1.
